Patent US20040156869A1, “2-substituted quinazolin-4-ylamine analogues” (Neurogen Corporation, priority 2002, published 2004)

What follows are molecules tested against human capsaicin receptor (VR1) (Homo sapiens, UniProt Q8NER1) (assay: Capsaicin receptor binding assay ([3H]RTX competition, VR1-transfected HEK293 membranes)).
Chain of human capsaicin receptor (VR1) (Q8NER1 whole entry): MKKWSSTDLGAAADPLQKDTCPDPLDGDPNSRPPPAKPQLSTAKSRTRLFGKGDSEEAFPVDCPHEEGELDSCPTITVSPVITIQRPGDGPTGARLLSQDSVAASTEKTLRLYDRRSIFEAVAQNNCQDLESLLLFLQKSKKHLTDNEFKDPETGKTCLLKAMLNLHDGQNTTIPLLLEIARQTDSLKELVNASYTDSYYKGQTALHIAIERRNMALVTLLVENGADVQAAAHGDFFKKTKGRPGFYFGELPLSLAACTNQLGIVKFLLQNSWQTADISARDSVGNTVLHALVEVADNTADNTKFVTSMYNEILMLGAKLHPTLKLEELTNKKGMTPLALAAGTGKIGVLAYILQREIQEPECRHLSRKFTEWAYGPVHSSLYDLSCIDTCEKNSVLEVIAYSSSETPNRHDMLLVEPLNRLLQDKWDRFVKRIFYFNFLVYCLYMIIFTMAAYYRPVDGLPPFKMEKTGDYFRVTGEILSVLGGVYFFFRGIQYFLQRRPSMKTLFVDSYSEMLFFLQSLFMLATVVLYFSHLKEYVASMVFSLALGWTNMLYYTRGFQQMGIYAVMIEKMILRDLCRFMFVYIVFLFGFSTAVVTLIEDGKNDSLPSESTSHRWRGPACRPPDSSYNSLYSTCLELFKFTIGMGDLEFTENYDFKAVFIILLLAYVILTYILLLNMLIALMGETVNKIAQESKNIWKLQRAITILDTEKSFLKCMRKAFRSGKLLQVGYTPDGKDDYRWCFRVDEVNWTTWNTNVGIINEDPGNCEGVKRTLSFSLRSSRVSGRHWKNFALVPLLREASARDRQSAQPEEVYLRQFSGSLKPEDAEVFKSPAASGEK

SMILES	Ki
CC(C)(C)c1ccc(Nc2nc(CN3CCC[C@H]3C(=O)O)nc3cc(-c4ncccc4C(F)(F)F)cnc23)cc1 [Compound 752, (S)-1-[4-(4-tert-Butyl-phenylamino)-7-(3-trifluoromethyl-pyridin-2-yl)-pyrido[3,2-d]pyrimidin-2-ylmethyl]-pyrrolidine-2-carboxylic acid]	< 1 µM
CC(C)(C)c1ccc(Nc2nc(CN3CCCCC3)nc3cc(-c4ncccc4C(F)(F)F)ccc23)cc1 [Compound 476, (4-tert-Butyl-phenyl)-[2-piperidin-1-ylmethyl-7-(3-trifluoromethyl-pyridin-2-yl)-quinazolin-4-yl]-amine]	< 1 µM
Cc1cccnc1-c1ccc2c(Nc3ccc(S(C)(=O)=O)cc3)nc(COCC(C)C)nc2n1 [Compound 216, [2-Isobutoxymethyl-7-(3-methyl-pyridin-2-yl)-pyrido[2,3-d]pyrimidin-4-yl]-(4-methanesulfonyl-phenyl)-amine]	< 1 µM
FC(F)(F)c1ccc(Nc2nc(CCN3CCSCC3)nc3cc(-c4ncccc4C(F)(F)F)ccc23)cc1 [Compound 403, [2-Thiomorpholin-4-ylethyl-7-(3-trifluoromethyl-pyridin-2-yl)-quinazolin-4-yl]-(4-trifluoromethyl-phenyl)-amine]	< 1 µM
C[C@H]1CN(Cc2nc(Nc3ccc(C(C)(C)C)cc3)c3ccc(-c4ncccc4Cl)cc3n2)C[C@H](C)O1 [Compound 649, (S,S)-(4-tert-Butyl-phenyl)-[7-(3-chloro-pyridin-2-yl)-2-(2,6-dimethyl-morpholin-4-ylmethyl)-quinazolin-4-yl]-amine]	< 1 µM
CCN(CC)C(=O)C(C)(C)c1ccc(Nc2nc(COCC(C)C)nc3nc(-c4ncccc4C)ccc23)cc1 [Compound 222, N,N-Diethyl-2-{4-[2-isobutoxymethyl-7-(3-methyl-pyridin-2-yl)-pyrido[2,3-d]pyrimidin-4-ylamino]-phenyl}-isobutyramide]	< 1 µM
COc1ccc(-c2nc(Nc3ccc(C(F)(F)F)cc3)c3ccc(-c4ncccc4C(F)(F)F)cc3n2)cn1 [Compound 509, [2-(6-Methoxy-pyridin-3-yl)-7-(3-trifluoromethyl-pyridin-2-yl)-quinazolin-4-yl]-(4-trifluoromethyl-phenyl)-amine]	< 1 µM
CS(=O)(=O)NCc1nc(Nc2ccc(C(F)(F)F)cc2)c2ccc(-c3ncccc3C(F)(F)F)cc2n1 [Compound 506, N-[4-(4-Trifluoromethyl-phenylamino)-7-(3-trifluoromethyl-pyridin-2-yl)-quinazolin-2-ylmethyl]-methanesulfonamide]	< 1 µM
COCCN(CCOC)Cc1nc(Nc2ccc(C(F)(F)F)cc2)c2ccc(-c3ncccc3C)nc2n1 [Compound 743, [2-{[Bis-(2-methoxy-ethyl)-amino]-methyl}-7-(3-methyl-pyridin-2-yl)-pyrido[2,3-d]pyrimidin-4-yl]-(4-trifluoromethyl-phenyl)-amine]	< 1 µM
CCCCN(CCCC)CCc1nc(Nc2ccc(C(F)(F)F)cc2)c2ccc(-c3ncccc3C(F)(F)F)cc2n1 [Compound 420, [2-Dibutylaminoethyl-7-(3-trifluoromethyl-pyridin-2-yl)-quinazolin-4-yl]-(4-trifluoromethyl-phenyl)-amine]	< 1 µM
NC(=O)C1CCN(CCc2nc(Nc3ccc(C(F)(F)F)cc3)c3ccc(-c4ncccc4C(F)(F)F)cc3n2)CC1 [Compound 589, 1-{2-[4-(4-Trifluoromethyl-phenylamino)-7-(3-trifluoromethyl-pyridin-2-yl)-quinazolin-2-yl]-ethyl}-piperidine-4-carboxylic acid amide]	< 1 µM
CCOCc1nc(Nc2ccc(C(C)(C)C#N)cc2)c2ccc(-c3ncccc3C(F)(F)F)nc2n1 [Compound 225, 2-{4-[2-Ethoxymethyl-7-(3-trifluoromethyl-pyridin-2-yl)-pyrido[2,3-d]pyrimidin-4-ylamino]-phenyl}-2-methyl-propionitrile]	< 1 µM
COCc1nc(Nc2ccc(C(C)C)cc2)c2ncc(-c3ncccc3C(F)(F)F)cc2n1 [Compound 51, (4-Isopropyl-phenyl)-[2-methoxymethyl-7-(3-trifluoromethyl-pyridin-2-yl)-pyrido[3,2-d]pyrimidin-4-yl]-amine]	< 1 µM
CN(C)CCOCc1cc(Nc2ccc(C(F)(F)F)cc2)c2ccc(-c3ncccc3C(F)(F)F)nc2n1 [Compound 309, [2-(2-Dimethylamino-ethoxymethyl)-7-(3-trifluoromethyl-pyridin-2-yl)-[1,8]naphthyridin-4-yl]-(4-trifluoromethyl-phenyl)-amine]	< 1 µM
CCOC(=O)C1CCN(CCc2nc(Nc3ccc(C(F)(F)F)cc3)c3ccc(-c4ncccc4C(F)(F)F)cc3n2)CC1 [Compound 592, 1-{2-[4-(4-Trifluoromethyl-phenylamino)-7-(3-trifluoromethyl-pyridin-2-yl)-quinazolin-2-yl]-ethyl}-piperidine-4-carboxylic acid ethyl ester]	< 1 µM
OCc1cc2nc(-c3ncccc3C(F)(F)F)ccc2c(Nc2ccc(C(F)(F)F)cc2)n1 [Compound 286, [5-(4-Trifluoromethyl-phenylamino)-2-(3-trifluoromethyl-pyridin-2-yl)-[1,6]naphthyridin-7-yl]-methanol]	< 1 µM

SMILES	Ki
OCc1nc(Nc2ccc(C(F)(F)F)nc2)c2ccc(-c3ncccc3C(F)(F)F)cc2n1 [Compound 22, [7-(3-Trifluoromethyl-pyridin-2-yl)-4-(6-trifluoromethyl-pyridin-3-ylamino)-quinazolin-2-yl]-methanol]	< 1 µM
CC1CCCCN1Cc1nc(Nc2ccc(C(F)(F)F)nc2)c2ccc(-c3ncccc3C(F)(F)F)cc2n1 (centres unmarked) [Compound 379, [2-(2-Methyl-piperidin-1-ylmethyl)-7-(3-trifluoromethyl-pyridin-2-yl)-quinazolin-4-yl]-(6-trifluoromethyl-pyridin-3-yl)-amine]	< 1 µM
CC(C)(C)c1ccc(Nc2nc(CCCOCc3ccccc3)nc3cc(-c4ncccc4C(F)(F)F)ccc23)cn1 [Compound 15, [2-(3-Benzyloxy-propyl)-7-(3-trifluoromethyl-pyridin-2-yl)-quinazolin-4-yl]-(6-tert-butyl-pyridin-3-yl)-amine]	< 1 µM
CC(C)S(=O)(=O)c1ccc(Nc2nc(CN3C[C@@H](C)O[C@H](C)C3)nc3cc(-c4ncccc4C(F)(F)F)ccc23)cc1 [Compound 655, (R,R)-[2-(2,6-Dimethyl-morpholin-4-ylmethyl)-7-(3-trifluoromethyl-pyridin-2-yl)-quinazolin-4-yl]-[4-(propane-2-sulfonyl)-phenyl]-amine]	< 1 µM
CCCCCCN(C)Cc1nc(Nc2ccc(C(F)(F)F)cc2)c2ccc(-c3ncccc3C(F)(F)F)cc2n1 [Compound 336]	< 1 µM
CCCCN(C)Cc1nc(Nc2ccc(C(F)(F)F)cc2)c2ccc(-c3ncccc3C(F)(F)F)cc2n1 [Compound 331]	< 1 µM
COCCNCc1nc(Nc2ccc(C(F)(F)F)cc2)c2ccc(-c3ncccc3C(F)(F)F)cc2n1 [Compound 535, [2-[(2-Methoxy-ethylamino)-methyl]-7-(3-trifluoromethyl-pyridin-2-yl)-quinazolin-4-yl]-(4-trifluoromethyl-phenyl)-amine]	< 1 µM
CC(C)(C)c1ccc(Nc2nc(CN3CCCC3CO)nc3cc(-c4ncccc4C(F)(F)F)ccc23)cc1 (centres unmarked) [Compound 755, {1-[4-(4-tert-Butyl-phenylamino)-7-(3-trifluoromethyl-pyridin-2-yl)-quinazolin-2-ylmethyl]-pyrrolidin-2-yl}-methanol]	< 1 µM
C[C@@H]1CN(C(=O)c2nc(Nc3ccc(C(F)(F)F)cc3)c3ccc(-c4ncccc4C(F)(F)F)cc3n2)C[C@H](C)O1 [Compound 702, (2,6-Dimethyl-morpholin-4-yl)-[4-(4-trifluoromethyl-phenylamino)-7-(3-trifluoromethyl-pyridin-2-yl)-quinazolin-2-yl]-methanone (cis)]	< 1 µM
COCc1nc(Nc2ccc(S(C)(=O)=O)cc2)c2ccc(-c3ncccc3C(F)(F)F)cc2n1 [Compound 32, (4-Methanesulfonyl-phenyl)-[2-methoxymethyl-7-(3-trifluoromethyl-pyridin-2-yl)-quinazolin-4-yl]-amine]	< 1 µM
FC(F)(F)c1ccc(Nc2nc(COCc3ccncc3)nc3cc(-c4ncccc4C(F)(F)F)ccc23)cn1 [Compound 46, [2-(Pyridin-4-ylmethoxymethyl)-7-(3-trifluoromethyl-pyridin-2-yl)-quinazolin-4-yl]-(6-trifluoromethyl-pyridin-3-yl)-amine]	< 1 µM
FC(F)(F)c1ccc(Nc2nc(CCN3CCOCC3)nc3cc(-c4ncccc4C(F)(F)F)ccc23)cc1 [Compound 400, [2-Morpholin-4-ylethyl-7-(3-trifluoromethyl-pyridin-2-yl)-quinazolin-4-yl]-(4-trifluoromethyl-phenyl)-amine]	< 1 µM
CN1CCN(Cc2nc(Nc3ccc(C(F)(F)F)cn3)c3ccc(-c4ncccc4C(F)(F)F)cc3n2)CC1 [Compound 522, [2-(4-Methyl-piperazin-1-ylmethyl)-7-(3-trifluoromethyl-pyridin-2-yl)-quinazolin-4-yl]-(5-trifluoromethyl-pyridin-2-yl)-amine]	< 1 µM
CC(C)COCc1nc(Nc2ccc(C(C)(C)C)cc2)c2ccc(-c3ncccc3C(F)(F)F)nc2n1 [Compound 162, (4-terr-Butyl-phenyl)-[2-isobutoxymethyl-7-(3-trifluoromethyl-pyridin-2-yl)-pyrido[2,3-d]pyrimidin-4-yl]-amine]	< 1 µM
C[C@@H]1CN(Cc2nc(Nc3ccc(S(=O)(=O)C(F)(F)F)cc3)c3ccc(-c4ncccc4C(F)(F)F)cc3n2)C[C@H](C)O1 [Compound 582, [2-(2,6-Dimethyl-morpholin-4-ylmethyl)-7-(3-trifluoromethyl-pyridin-2-yl)-quinazolin-4-yl]-(4-trifluoromethanesulfonyl-phenyl)-amine (cis)]	< 1 µM
FC(F)(F)c1ccc(Nc2nc(CN3CCCC3)nc3cc(-c4ncccc4C(F)(F)F)ccc23)cn1 [Compound 358, [2-Pyrrolidin-1-ylmethyl-7-(3-trifluoromethyl-pyridin-2-yl)-quinazolin-4-yl]-(6-trifluoromethyl-pyridin-3-yl)-amine]	< 1 µM
